Measured values: US7183309B2, “Indole derivatives useful as progesterone receptor modulators” (Janssen Pharmaceutica N.V., priority 2004, dated 2007)

System: T47D human breast cancer cells
Assay: In Vitro Testing-T47 D Assay (alkaline phosphatase assay)
Assay type: cell-based
Conditions: alkaline phosphatase luminescence readout after 24 h
Experimental: In Vitro Testing-T47 D Assay
T47D human breast cancer cells are grown in RPMI medium without phenol red (Invitrogen) containing 10% (v/v) heat-inactivated fetal bovine serum (FBS; Hyclone), 1% (v/v) penicillin-streptomycin (Invitrogen), 1% (w/v) glutamine (Invitrogen), and […] (Sigma). Incubation conditions are 37° C. in a humidified 5% (v/v) carbon dioxide environment. For assay, the cells are plated in 96-well tissue culture plates at 10,000 cells per well in assay medium [RPMI medium without phenol red (Invitrogen) containing 5% (v/v) charcoal-treated FBS (Hyclone) and 1% (v/v) penicillin-streptomycin (Invitrogen)]. Two days later, the medium is decanted and the compounds are added in a final concentration of 0.1% (v/v) dimethyl sulfoxide in fresh assay medium. Twenty-four hours later, an alkaline phosphatase assay is performed using a SEAP kit (BD Biosciences Clontech, Palo Alto, Calif.). Briefly, the medium is decanted and the cells are fixed for 30 minutes at room temperature with 5% (v/v) formalin (Sigma). The cells are washed once with room temperature Hank's buffered saline solution (Invitrogen). Equal volumes (0.05 mL) of 1× Dilution Buffer, Assay Buffer and 1:20 substrate/enhancer mixture are added. After 1-hour incubation at room temperature in the dark, the lysate is transferred to a white 96-well plate (Dynex) and luminescence is read using a LuminoSkan Ascent (Thermo Electron, Woburn, Mass.).

| SMILES | IC50 (Homo sapiens, T47D, 24 h) | inhibition at 3 µM (Homo sapiens, T47D, 24 h) | other results |
| --- | --- | --- | --- |
| O=[N+]([O-])c1ccc(Sc2c(-c3ccccc3)[nH]c3cc(Cl)c(F)cc23)cc1 [Example 3, 6-Chloro-5-fluoro-3-(4-nitro-phenylsulfanyl)-2-phenyl-1H-indole] | 1.4 µM | 88% |  |
| CC(C)(O)c1[nH]c2cc(C(F)(F)F)c(C#N)cc2c1Sc1cccc([N+](=O)[O-])c1 [Example 4, 2-(1-Hydroxy-1-methyl-ethyl)-3-(3-nitro-phenylsulfanyl)-6-trifluoromethyl-1H-indole-5-carbonitrile] |  |  | inhibition at 3 µM (Homo sapiens): 69%; IC50 (Homo sapiens): 2.19 µM |
| O=[N+]([O-])c1cccc(S(=O)(=O)c2c(-c3ccccc3)[nH]c3cc(Cl)c(F)cc23)c1 [Example 8, 6-Chloro-5-fluoro-3-(3-nitro-benzenesulfonyl)-2-phenyl-1H-indole] |  |  | inh. @ 3 uM: 82%; IC50: 3.18 µM |
| CC(C)(O)c1[nH]c2cc(C(F)(F)F)c([N+](=O)[O-])cc2c1Sc1ccccc1 [Example 1, 2-(5-Nitro-3-phenylsulfanyl-6-trifluoromethyl-1H-indol-2-yl)-propan-2-ol] |  |  | inhibition at 3 µM (Homo sapiens): 99%; IC50 (Homo sapiens): 0.062 µM |
| C=C(C)c1[nH]c2cc(C(F)(F)F)c([N+](=O)[O-])cc2c1Sc1ccccc1 [Example 2, 2-Isopropenyl-5-nitro-3-phenylsulfanyl-6-trifluoromethyl-1H-indole] | > 10 µM |  |  |

Continued, in another order:

| IC50 (Homo sapiens, T47D, 24 h) | SMILES | inhibition at 3 µM (Homo sapiens, T47D, 24 h) | other results |
| --- | --- | --- | --- |
| 1.9 µM | O=[N+]([O-])c1cccc(Sc2c(-c3ccccc3)[nH]c3cc(Cl)c(F)cc23)c1 [Example 6, 6-Chloro-5-fluoro-3-(3-nitro-phenylsulfanyl)-2-phenyl-1H-indole] | 99% |  |
| 3.62 µM | O=[N+]([O-])c1cccc(S(=O)(=O)c2c(-c3ccccc3)[nH]c3cc(Cl)c(F)cc23)c1 [Example 7, 6-Chloro-5-fluoro-3-(3-nitro-benzenesulfonyl)-2-phenyl-1H-indole] |  | inh. @ 3 uM: 55% |
| 1.76 µM | Fc1cc2c(Sc3ccccc3)c(-c3ccccc3)[nH]c2cc1Cl [Example 5, 6-Chloro-5-fluoro-2-phenyl-3-phenylsulfanyl-1H-indole] | 103% |  |
